Measurements published in ChEMBL document CHEMBL1201862, “PubChem BioAssay data set” (2004).
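These data come from cells grown in 96-well plates and exposed to compound for 48 hours at five concentrations. GI50 is the concentration that inhibits growth by half.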 Calls of active or inactive are those of the source. No stated cut-off is given here; in the data, active = GI50 up to about 1.1 µM and inactive = higher.

Columns and labels:
Assay in all cases: inhibition of tumour cell growth, NCI panel, 48 h
HOP-62 = system: HOP-62
PC-3 = system: PC-3
SF-295 = system: SF-295
OVCAR-8 = system: OVCAR-8
NCI-H522 = system: NCI-H522
OVCAR-5 = system: OVCAR-5
LOX IMVI = system: LOX IMVI
SK-MEL-28 = system: SK-MEL-28
DU-145 = system: DU-145
EKVX = system: EKVX
BT-549 = system: BT-549
HCT-15 = system: HCT-15
MDA-MB-435 = system: MDA-MB-435
SF-268 = system: SF-268
COLO 205 = system: COLO 205
SK-MEL-5 = system: SK-MEL-5
HCC 2998 = system: HCC 2998
RXF 393 = system: RXF 393
SW-620 = system: SW-620
NCI/ADR-RES = system: NCI/ADR-RES

Compound | GI50 (HOP-62) | GI50 (PC-3) | GI50 (SF-295) | GI50 (OVCAR-8) | GI50 (NCI-H522) | GI50 (OVCAR-5) | GI50 (LOX IMVI) | GI50 (SK-MEL-28) | GI50 (DU-145) | GI50 (EKVX) | GI50 (BT-549) | GI50 (HCT-15) [µM] | GI50 (MDA-MB-435) | GI50 (SF-268) | GI50 (COLO 205) | GI50 (SK-MEL-5) | GI50 (HCC 2998) | GI50 (RXF 393) | GI50 (SW-620) | GI50 (NCI/ADR-RES)
CC(=O)OC(CN1CCN(c2ccccn2)CC1)Cn1sc2nc(C)cc(C)c2c1=O (stereo not given) | 28.8 µM (inactive) | 17.5 µM (inactive) | > 100 µM (inactive) | 28.7 µM (inactive) | 7.03 µM (inactive) | 17.5 µM (inactive) | 21.3 µM (inactive) | 20 µM (inactive) | 19 µM (inactive) | 17.3 µM (inactive) | 18.6 µM (inactive) | 20 | 16.9 µM (inactive) | 17.3 µM (inactive) | 15.8 µM (inactive) | 13.2 µM (inactive) | 19.5 µM (inactive) | 20.2 µM (inactive) | 26.4 µM (inactive) | 27 µM (inactive)
C=CCN1CCC2(CC1)NC(=O)c1ccccc1O2 | > 100 µM (inactive) | > 100 µM (inactive) | > 100 µM (inactive) | > 100 µM (inactive) | > 100 µM (inactive) | > 100 µM (inactive) | > 100 µM (inactive) | > 100 µM (inactive) | > 100 µM (inactive) | > 100 µM (inactive) | > 100 µM (inactive) | > 100 | > 100 µM (inactive) | > 100 µM (inactive) | > 100 µM (inactive) | > 100 µM (inactive) | > 100 µM (inactive) | > 100 µM (inactive) | > 100 µM (inactive) | > 100 µM (inactive)
CCC1(O)C(=O)OCc2c1cc1n(c2=O)Cc2cc3cc4c(cc3nc2-1)OCO4 (stereo not given) | < 0.01 µM (active) | 0.204 µM (active) | < 0.01 µM (active) | < 0.01 µM (active) | < 0.01 µM (active) | 0.0327 µM (active) | < 0.01 µM (active) | 0.112 µM (active) | < 0.01 µM (active) | 0.0776 µM (active) | 0.0163 µM (active) | 0.0306 | < 0.0131 µM (active) | < 0.0363 µM (active) | 0.0713 µM (active) | < 0.01 µM (active) | 0.0233 µM (active) | < 0.01 µM (active) | < 0.0115 µM (active) | < 0.01 µM (active)
CC(C)(O)C1CC[C@]2(C)[C@H]3CC[C@@H]4[C@@]5(C)CCCC(C)(C)[C@@H]5CC[C@@]4(C)[C@]3(C)CC[C@@H]12 (stereo not given in full) | > 100 µM (inactive) | > 100 µM (inactive) | > 100 µM (inactive) | > 100 µM (inactive) | > 100 µM (inactive) | > 100 µM (inactive) | > 100 µM (inactive) | > 100 µM (inactive) | > 100 µM (inactive) | > 100 µM (inactive) | > 100 µM (inactive) | > 100 | > 100 µM (inactive) | > 100 µM (inactive) | > 100 µM (inactive) | > 100 µM (inactive) | > 100 µM (inactive) | > 100 µM (inactive) | > 100 µM (inactive) | > 100 µM (inactive)
CC1(C=O)CC(CCc2ccccc2)NC1Cc1ccc(O)cc1 (stereo not given) | 18.6 µM (inactive) | 13.8 µM (inactive) | 17.7 µM (inactive) | 21 µM (inactive) | 19.4 µM (inactive) | 17.4 µM (inactive) | 17 µM (inactive) | 22.1 µM (inactive) | 17.5 µM (inactive) | 15.2 µM (inactive) | 22.9 µM (inactive) | 21.3 | 17.4 µM (inactive) | 16.6 µM (inactive) | 10.6 µM (inactive) | 15.6 µM (inactive) | 11.6 µM (inactive) | 15.7 µM (inactive) | 23.3 µM (inactive) | 18.8 µM (inactive)
c1ccc([P+](Cc2ccc(C[P+](c3ccccc3)(c3ccccc3)c3ccccc3)s2)(c2ccccc2)c2ccccc2)cc1 | > 100 µM (inactive) | > 100 µM (inactive) | > 100 µM (inactive) | > 100 µM (inactive) | > 100 µM (inactive) | > 100 µM (inactive) | > 100 µM (inactive) | > 100 µM (inactive) | > 100 µM (inactive) | > 100 µM (inactive) | > 100 µM (inactive) | > 100 | > 100 µM (inactive) | > 100 µM (inactive) | > 100 µM (inactive) | > 100 µM (inactive) | > 100 µM (inactive) | > 100 µM (inactive) | > 100 µM (inactive) | > 100 µM (inactive)
O=C(CCc1cc(O)cc(O)c1)NCCc1cc(O)cc(OCc2ccccc2)c1 | 43.6 µM (inactive) | 37.8 µM (inactive) | 32.9 µM (inactive) | 34.3 µM (inactive) | 36.5 µM (inactive) | 63 µM (inactive) | 33.7 µM (inactive) | 54.8 µM (inactive) | 33.1 µM (inactive) | 57.3 µM (inactive) | 29.6 µM (inactive) | 68.9 | 36.2 µM (inactive) | 29.6 µM (inactive) | 48.3 µM (inactive) | 19.1 µM (inactive) | 20.5 µM (inactive) | 37 µM (inactive) | 72.1 µM (inactive) | > 100 µM (inactive)
CCOC(=O)c1cc(C)n(CN(CCO)Cn2nc(C(=O)OCC)cc2C)n1 | 25.9 µM (inactive) | 28.4 µM (inactive) | > 100 µM (inactive) | 22.7 µM (inactive) | 22.6 µM (inactive) | 19.5 µM (inactive) | 27.5 µM (inactive) | 40.7 µM (inactive) | 25.5 µM (inactive) | 34.2 µM (inactive) | 27.5 µM (inactive) | 21.5 | 39.7 µM (inactive) | 34.9 µM (inactive) | 20.5 µM (inactive) | 37.2 µM (inactive) | 11.8 µM (inactive) | 19.3 µM (inactive) | 28.3 µM (inactive) | 18.7 µM (inactive)
CCCCCCCCC(=O)NCCN(CCN)C(=O)CCCCCCCC | 15.3 µM (inactive) | 10.7 µM (inactive) | 4.99 µM (inactive) | 10.7 µM (inactive) | 2.65 µM (inactive) | 15.8 µM (inactive) | 3.85 µM (inactive) | 14.9 µM (inactive) | 13.6 µM (inactive) | 18.2 µM (inactive) | 3.44 µM (inactive) | 5.19 | 13.7 µM (inactive) | 6.87 µM (inactive) | 3.29 µM (inactive) | 10.3 µM (inactive) | 6.14 µM (inactive) | 13.5 µM (inactive) | 2.34 µM (inactive) | 13.1 µM (inactive)
COC1(CC[C@H](C)COC2OC(CO)C(O)C(O)C2O)O[C@H]2C[C@H]3[C@@H]4CC=C5C[C@@H](OC6OC(CO)C(OC7OC(C)C(O)C(O)C7O)C(O)C6OC6OC(C)C(O)C(O)C6O)CC[C@]5(C)[C@H]4CC[C@]3(C)[C@H]2[C@@H]1C (stereo not given in full) | 1.87 µM (inactive) | 3.28 µM (inactive) | 4.29 µM (inactive) | 3.37 µM (inactive) | 2.31 µM (inactive) | 4.2 µM (inactive) | 1.9 µM (inactive) | 3.77 µM (inactive) | 2.42 µM (inactive) | 19.5 µM (inactive) | 4.88 µM (inactive) | 2.68 | 1.77 µM (inactive) | 3.24 µM (inactive) | 6.25 µM (inactive) | 4.98 µM (inactive) | 6.32 µM (inactive) | 4.57 µM (inactive) | 2.67 µM (inactive) | 3.67 µM (inactive)
CCOC(=O)c1ccc(C(=O)/C(C#N)=C2\CCCN2)n1C | > 100 µM (inactive) | > 100 µM (inactive) | > 100 µM (inactive) | > 100 µM (inactive) | 95.7 µM (inactive) | > 100 µM (inactive) | 86.5 µM (inactive) | > 100 µM (inactive) | 95.1 µM (inactive) | > 100 µM (inactive) | 78.9 µM (inactive) | 76.4 | 31.2 µM (inactive) | > 100 µM (inactive) | > 100 µM (inactive) | 33.6 µM (inactive) | > 100 µM (inactive) | 25.7 µM (inactive) | > 100 µM (inactive) | 34.2 µM (inactive)
COc1cc2c(c3oc4c(O)cccc4c(=O)c13)CC(C(C)(O)CO)O2 (stereo not given) | > 100 µM (inactive) | > 100 µM (inactive) | > 100 µM (inactive) | 53.1 µM (inactive) | 35.1 µM (inactive) | > 100 µM (inactive) | 25 µM (inactive) | > 100 µM (inactive) | > 100 µM (inactive) | > 100 µM (inactive) | 34.5 µM (inactive) | > 100 | > 100 µM (inactive) | 46.8 µM (inactive) | > 100 µM (inactive) | 53 µM (inactive) | > 100 µM (inactive) | 7.74 µM (inactive) | 47.6 µM (inactive) | > 100 µM (inactive)
O=C(/C=C/c1ccc(O)c(O)c1)OCCCOC(=O)/C=C/c1ccc(O)c(O)c1 | 11.7 µM (inactive) | 30.5 µM (inactive) | 18 µM (inactive) | 22.8 µM (inactive) | 11.6 µM (inactive) | 27.4 µM (inactive) | 12.4 µM (inactive) | 36.6 µM (inactive) | 34.8 µM (inactive) | 33.4 µM (inactive) | 25.3 µM (inactive) | 14 | 30.2 µM (inactive) | 23.9 µM (inactive) | 28.9 µM (inactive) | 15.9 µM (inactive) | 38.9 µM (inactive) | 26.8 µM (inactive) | 11.4 µM (inactive) | 28.4 µM (inactive)
Cc1cc(O)c(C(C)C)cc1C1(c2cc(C(C)C)c(O)cc2C)OC(=O)c2ccccc21 | 2.76 µM (inactive) | 2.26 µM (inactive) | 1.78 µM (inactive) | 2.7 µM (inactive) | 1.84 µM (inactive) | 2.38 µM (inactive) | 1.78 µM (inactive) | 1.6 µM (inactive) | 2.07 µM (inactive) | 2.99 µM (inactive) | 2.24 µM (inactive) | 2 | 1.63 µM (inactive) | 2.1 µM (inactive) | 1.93 µM (inactive) | 1.6 µM (inactive) | 1.73 µM (inactive) | 1.47 µM (inactive) | 1.76 µM (inactive) | 2.9 µM (inactive)
